Reference: ChEMBL document CHEMBL1201862, “PubChem BioAssay data set” (2004)
Calls of active or inactive are those of the source.

Legend:
[1] = target: T1, Mannose-6-phosphate isomerase (Homo sapiens, UniProt P34949); assay: MPI inhibition at elevated mannose 6-phosphate – biochemical, fluorescence intensity, high mannose 6-phosphate, primary screen (AID 1220)
T1 sequence (P34949 whole entry): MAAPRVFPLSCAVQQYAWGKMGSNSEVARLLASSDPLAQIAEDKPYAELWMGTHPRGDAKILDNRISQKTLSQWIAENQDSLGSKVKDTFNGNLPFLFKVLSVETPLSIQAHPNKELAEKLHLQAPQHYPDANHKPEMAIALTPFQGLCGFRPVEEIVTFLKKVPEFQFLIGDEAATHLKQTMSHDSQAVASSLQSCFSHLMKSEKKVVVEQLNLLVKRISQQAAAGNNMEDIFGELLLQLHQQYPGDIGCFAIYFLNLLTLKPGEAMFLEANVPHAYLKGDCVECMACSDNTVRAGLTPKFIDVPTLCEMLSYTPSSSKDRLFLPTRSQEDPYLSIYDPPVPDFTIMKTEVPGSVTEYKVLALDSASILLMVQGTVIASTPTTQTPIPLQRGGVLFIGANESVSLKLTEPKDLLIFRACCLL

[2] = fluconazole-exposed Candida albicans growth modulators – fluorescence, retest, confirmation (AID 2467); type: functional, cell-based
[3] = NIH-3T3 fibroblast cytotoxicity, dose response, cytotoxicity control, cell-based, fluorescence, Alamar Blue, secondary assay (AID 2327); type: functional;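 further: NIH-3T3 mouse fibroblasts cultured with fluconazole at 8 µg/mL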
[4] = viability inhibitors of stage V gametocytes – luminescence, dose response (AID 1117278); type: functional, cell-based;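 further: gametocytes exposed to compound for 24 hours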
[5] = viability loss in human Jurkat cells – cell-based, luminescence, cytotoxicity control for P. falciparum gametocyte viability project, dose response (AID 1117277); type: functional;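 further: potency reflects loss of cellular ATP meaning fewer viable cells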
[6] = target: T2, SUMO-activating enzyme (Homo sapiens, UniProt Q9UBT2); assay: blockers of UBC9-mediated SUMO conjugation – biochemical, AlphaScreen, SUMOylation inhibitor project, confirmation (AID 2018); type: functional
T2 sequence (Q9UBE0 whole entry): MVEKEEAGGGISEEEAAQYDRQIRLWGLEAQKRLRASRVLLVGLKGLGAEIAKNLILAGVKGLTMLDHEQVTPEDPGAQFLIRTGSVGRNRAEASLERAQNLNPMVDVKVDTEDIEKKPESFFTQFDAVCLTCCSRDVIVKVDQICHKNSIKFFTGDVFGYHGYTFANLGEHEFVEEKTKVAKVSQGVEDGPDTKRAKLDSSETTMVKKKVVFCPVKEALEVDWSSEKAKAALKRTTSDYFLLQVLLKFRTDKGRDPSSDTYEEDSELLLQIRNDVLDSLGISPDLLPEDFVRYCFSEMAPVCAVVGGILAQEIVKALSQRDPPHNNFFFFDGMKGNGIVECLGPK
T2 sequence (Q9UBT2 whole entry): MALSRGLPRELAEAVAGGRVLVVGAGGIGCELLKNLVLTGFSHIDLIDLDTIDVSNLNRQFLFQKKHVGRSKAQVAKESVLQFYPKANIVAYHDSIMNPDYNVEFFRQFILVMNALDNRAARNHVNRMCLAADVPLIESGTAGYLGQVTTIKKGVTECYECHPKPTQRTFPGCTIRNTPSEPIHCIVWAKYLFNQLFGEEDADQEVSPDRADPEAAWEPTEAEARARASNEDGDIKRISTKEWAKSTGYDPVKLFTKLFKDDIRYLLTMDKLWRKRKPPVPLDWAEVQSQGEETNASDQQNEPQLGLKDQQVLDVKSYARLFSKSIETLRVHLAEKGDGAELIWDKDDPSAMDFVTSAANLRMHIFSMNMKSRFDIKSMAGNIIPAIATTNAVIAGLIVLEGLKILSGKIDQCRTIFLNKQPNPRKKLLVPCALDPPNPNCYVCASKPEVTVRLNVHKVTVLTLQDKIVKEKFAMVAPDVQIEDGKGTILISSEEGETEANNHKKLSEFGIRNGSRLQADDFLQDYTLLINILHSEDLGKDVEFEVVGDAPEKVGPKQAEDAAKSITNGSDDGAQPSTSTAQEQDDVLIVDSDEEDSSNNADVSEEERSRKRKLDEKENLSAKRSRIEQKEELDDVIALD

[7] = target: T2, SUMO-activating enzyme; assay: blockers of SAE1/SAE2–UBC9 SUMO transfer – biochemical, HTRF, uHTS, primary screen (AID 2006); type: protein-complex assay
[8] = target: Serine/threonine-protein phosphatase PP1-alpha catalytic subunit (Homo sapiens, UniProt P62136); assay: inhibition of protein phosphatase 1 activity – biochemical, fluorescence, dose response (AID 2394)
[9] = target: T3, Protein RecA (Mycobacterium tuberculosis, UniProt P9WHJ3); assay: Fluorescence Cell-Free Homogeneous Dose Retest to Identify Inhibitors of RecA-Intein Splicing Activity. [Related pubchem assays (depositor defined):AID2097, AID2223, AID489010, AID492950]; type: functional
T3 sequence (P9WHJ3 whole entry): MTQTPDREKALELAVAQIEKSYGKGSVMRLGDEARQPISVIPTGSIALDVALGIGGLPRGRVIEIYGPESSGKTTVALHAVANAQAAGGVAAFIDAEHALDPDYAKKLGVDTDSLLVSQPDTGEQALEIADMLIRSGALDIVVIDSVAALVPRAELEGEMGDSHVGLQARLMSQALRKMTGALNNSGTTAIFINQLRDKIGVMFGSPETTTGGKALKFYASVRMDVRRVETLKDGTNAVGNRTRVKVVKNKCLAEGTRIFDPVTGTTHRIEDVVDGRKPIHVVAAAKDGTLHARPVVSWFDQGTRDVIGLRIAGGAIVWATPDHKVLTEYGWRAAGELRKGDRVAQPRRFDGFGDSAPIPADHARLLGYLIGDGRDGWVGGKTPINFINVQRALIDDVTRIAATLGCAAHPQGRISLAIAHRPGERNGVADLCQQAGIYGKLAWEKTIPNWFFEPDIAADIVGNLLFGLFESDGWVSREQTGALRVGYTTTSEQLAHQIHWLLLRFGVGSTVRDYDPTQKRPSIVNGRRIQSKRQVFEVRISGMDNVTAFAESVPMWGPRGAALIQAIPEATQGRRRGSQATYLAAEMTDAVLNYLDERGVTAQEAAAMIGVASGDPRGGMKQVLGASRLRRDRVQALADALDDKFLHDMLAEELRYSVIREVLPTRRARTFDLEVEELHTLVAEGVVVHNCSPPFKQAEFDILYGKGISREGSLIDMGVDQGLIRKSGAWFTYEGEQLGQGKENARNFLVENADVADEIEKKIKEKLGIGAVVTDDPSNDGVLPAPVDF

[10] = Luminescence Cell-Based Dose Confirmation HTS to Identify Activators of 5'UTR Stem-Loop Driven Alpha-Synuclein mRNA Translation in H4 Neuroglioblastoma Cells. [Related pubchem assays: 1829 (Project Summary), 1814 (Primary HTS)]; type: functional
[11] = target: T4, Replicative DNA helicase DnaB (Mycobacterium tuberculosis, UniProt P9WMR3); assay: DnaB intein splicing inhibitors, dose response, biochemical, cell-free fluorescence (AID 449749); type: functional
T4 sequence (P9WMR3 whole entry): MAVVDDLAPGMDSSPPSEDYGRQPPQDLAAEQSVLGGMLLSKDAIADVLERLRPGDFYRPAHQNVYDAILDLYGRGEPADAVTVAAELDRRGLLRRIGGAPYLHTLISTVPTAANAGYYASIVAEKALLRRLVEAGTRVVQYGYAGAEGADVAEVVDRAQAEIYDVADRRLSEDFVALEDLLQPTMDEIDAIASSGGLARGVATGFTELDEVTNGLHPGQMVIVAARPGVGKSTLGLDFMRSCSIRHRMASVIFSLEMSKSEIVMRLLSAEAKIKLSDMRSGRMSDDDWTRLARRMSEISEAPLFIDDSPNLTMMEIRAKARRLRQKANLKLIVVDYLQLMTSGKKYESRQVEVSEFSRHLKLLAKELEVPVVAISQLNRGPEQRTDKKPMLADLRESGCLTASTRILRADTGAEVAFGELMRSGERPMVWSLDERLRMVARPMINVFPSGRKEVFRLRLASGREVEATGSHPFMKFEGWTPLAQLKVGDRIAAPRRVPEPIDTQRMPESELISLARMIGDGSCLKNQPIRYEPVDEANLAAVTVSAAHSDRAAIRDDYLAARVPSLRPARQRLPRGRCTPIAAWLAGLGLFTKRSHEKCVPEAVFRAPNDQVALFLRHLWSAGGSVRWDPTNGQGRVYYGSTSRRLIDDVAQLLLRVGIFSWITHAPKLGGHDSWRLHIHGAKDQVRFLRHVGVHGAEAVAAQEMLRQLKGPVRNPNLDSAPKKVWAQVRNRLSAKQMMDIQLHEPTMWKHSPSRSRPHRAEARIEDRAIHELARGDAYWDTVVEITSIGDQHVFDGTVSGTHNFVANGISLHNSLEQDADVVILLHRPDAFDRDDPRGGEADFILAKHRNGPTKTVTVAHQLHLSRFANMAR

[12] = system: H4; assay: Luminescence Cell-Based Dose Response HTS to Identify Activators of 5'UTR Stem-Loop Driven Prion Protein mRNA Translation in H4 Neuroglioblastoma Cells. [Related pubchem assays: 1829 (Project Summary), 1814 (Primary HTS)]; type: functional; conditions: Homo sapiens
[13] = target: T5, Serine/threonine-protein phosphatase (Homo sapiens, UniProt Q9BPW0); assay: inhibition of protein phosphatase 5 activity – biochemical, fluorescence, dose response (AID 2395)
T5 sequence (Q9BPW0 whole entry): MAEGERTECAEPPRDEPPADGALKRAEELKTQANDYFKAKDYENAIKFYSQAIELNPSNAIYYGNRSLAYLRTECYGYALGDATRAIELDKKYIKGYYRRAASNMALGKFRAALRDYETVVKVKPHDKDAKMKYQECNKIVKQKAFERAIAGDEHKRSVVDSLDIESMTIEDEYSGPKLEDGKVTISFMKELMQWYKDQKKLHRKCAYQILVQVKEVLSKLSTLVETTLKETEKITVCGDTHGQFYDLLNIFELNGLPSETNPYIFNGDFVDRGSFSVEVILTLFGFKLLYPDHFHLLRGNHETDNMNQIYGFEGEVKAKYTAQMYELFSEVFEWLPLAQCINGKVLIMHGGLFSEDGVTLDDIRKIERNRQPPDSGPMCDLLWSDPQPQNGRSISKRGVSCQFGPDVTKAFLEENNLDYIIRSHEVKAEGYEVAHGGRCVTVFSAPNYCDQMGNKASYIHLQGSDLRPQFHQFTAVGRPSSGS

[14] = Luminescence Cell-Based Dose Response HTS to Identify Activators of Luciferase Translation or Activity in H4 […] Cells. [Related pubchem assays: 1829 (Project Summary), 1814 (Primary HTS)]; type: functional
[15] = target: 72 kDa type IV collagenase (Homo sapiens, UniProt P08253); assay: Dose Response validation of uHTS RPN11 inhibitor hits using a MMP-2 Fluorescence assay.; type: functional
[16] = target: Prothrombin (Bos taurus, UniProt P00735); assay: thrombin protease inhibitors – biochemical, fluorescence polarization, uHTS hits, dose response (AID 602369); type: functional
[17] = target: Peroxisome proliferator-activated receptor gamma/Nuclear receptor corepressor 2 (Homo sapiens, UniProt P37231+Q9Y618); assay: Counterscreen for NR2E3 inverse agonists: TR-FRET-based biochemical high throughput dose response assay to identify inverse agonists of the interaction between peroxisome proliferator-activated receptor gamma (PPARg) and nuclear receptor co-repressor 2 (NCOR2).; type: functional
Sequence of Peroxisome proliferator-activated receptor gamma/Nuclear receptor corepressor 2 (P37231 whole entry): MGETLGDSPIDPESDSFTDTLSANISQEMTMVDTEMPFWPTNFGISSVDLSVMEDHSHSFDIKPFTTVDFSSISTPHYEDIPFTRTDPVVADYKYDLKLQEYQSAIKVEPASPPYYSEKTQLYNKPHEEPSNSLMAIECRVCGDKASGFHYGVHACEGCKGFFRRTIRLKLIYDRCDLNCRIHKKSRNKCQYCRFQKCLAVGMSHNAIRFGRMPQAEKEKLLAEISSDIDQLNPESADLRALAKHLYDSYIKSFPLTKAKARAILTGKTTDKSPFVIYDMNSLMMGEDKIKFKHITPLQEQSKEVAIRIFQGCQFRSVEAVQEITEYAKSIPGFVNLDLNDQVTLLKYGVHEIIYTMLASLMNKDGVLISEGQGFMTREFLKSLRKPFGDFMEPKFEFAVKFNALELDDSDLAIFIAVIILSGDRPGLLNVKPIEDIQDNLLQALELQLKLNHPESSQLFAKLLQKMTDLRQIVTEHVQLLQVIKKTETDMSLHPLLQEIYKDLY
Sequence of Peroxisome proliferator-activated receptor gamma/Nuclear receptor corepressor 2 (Q9Y618 whole entry): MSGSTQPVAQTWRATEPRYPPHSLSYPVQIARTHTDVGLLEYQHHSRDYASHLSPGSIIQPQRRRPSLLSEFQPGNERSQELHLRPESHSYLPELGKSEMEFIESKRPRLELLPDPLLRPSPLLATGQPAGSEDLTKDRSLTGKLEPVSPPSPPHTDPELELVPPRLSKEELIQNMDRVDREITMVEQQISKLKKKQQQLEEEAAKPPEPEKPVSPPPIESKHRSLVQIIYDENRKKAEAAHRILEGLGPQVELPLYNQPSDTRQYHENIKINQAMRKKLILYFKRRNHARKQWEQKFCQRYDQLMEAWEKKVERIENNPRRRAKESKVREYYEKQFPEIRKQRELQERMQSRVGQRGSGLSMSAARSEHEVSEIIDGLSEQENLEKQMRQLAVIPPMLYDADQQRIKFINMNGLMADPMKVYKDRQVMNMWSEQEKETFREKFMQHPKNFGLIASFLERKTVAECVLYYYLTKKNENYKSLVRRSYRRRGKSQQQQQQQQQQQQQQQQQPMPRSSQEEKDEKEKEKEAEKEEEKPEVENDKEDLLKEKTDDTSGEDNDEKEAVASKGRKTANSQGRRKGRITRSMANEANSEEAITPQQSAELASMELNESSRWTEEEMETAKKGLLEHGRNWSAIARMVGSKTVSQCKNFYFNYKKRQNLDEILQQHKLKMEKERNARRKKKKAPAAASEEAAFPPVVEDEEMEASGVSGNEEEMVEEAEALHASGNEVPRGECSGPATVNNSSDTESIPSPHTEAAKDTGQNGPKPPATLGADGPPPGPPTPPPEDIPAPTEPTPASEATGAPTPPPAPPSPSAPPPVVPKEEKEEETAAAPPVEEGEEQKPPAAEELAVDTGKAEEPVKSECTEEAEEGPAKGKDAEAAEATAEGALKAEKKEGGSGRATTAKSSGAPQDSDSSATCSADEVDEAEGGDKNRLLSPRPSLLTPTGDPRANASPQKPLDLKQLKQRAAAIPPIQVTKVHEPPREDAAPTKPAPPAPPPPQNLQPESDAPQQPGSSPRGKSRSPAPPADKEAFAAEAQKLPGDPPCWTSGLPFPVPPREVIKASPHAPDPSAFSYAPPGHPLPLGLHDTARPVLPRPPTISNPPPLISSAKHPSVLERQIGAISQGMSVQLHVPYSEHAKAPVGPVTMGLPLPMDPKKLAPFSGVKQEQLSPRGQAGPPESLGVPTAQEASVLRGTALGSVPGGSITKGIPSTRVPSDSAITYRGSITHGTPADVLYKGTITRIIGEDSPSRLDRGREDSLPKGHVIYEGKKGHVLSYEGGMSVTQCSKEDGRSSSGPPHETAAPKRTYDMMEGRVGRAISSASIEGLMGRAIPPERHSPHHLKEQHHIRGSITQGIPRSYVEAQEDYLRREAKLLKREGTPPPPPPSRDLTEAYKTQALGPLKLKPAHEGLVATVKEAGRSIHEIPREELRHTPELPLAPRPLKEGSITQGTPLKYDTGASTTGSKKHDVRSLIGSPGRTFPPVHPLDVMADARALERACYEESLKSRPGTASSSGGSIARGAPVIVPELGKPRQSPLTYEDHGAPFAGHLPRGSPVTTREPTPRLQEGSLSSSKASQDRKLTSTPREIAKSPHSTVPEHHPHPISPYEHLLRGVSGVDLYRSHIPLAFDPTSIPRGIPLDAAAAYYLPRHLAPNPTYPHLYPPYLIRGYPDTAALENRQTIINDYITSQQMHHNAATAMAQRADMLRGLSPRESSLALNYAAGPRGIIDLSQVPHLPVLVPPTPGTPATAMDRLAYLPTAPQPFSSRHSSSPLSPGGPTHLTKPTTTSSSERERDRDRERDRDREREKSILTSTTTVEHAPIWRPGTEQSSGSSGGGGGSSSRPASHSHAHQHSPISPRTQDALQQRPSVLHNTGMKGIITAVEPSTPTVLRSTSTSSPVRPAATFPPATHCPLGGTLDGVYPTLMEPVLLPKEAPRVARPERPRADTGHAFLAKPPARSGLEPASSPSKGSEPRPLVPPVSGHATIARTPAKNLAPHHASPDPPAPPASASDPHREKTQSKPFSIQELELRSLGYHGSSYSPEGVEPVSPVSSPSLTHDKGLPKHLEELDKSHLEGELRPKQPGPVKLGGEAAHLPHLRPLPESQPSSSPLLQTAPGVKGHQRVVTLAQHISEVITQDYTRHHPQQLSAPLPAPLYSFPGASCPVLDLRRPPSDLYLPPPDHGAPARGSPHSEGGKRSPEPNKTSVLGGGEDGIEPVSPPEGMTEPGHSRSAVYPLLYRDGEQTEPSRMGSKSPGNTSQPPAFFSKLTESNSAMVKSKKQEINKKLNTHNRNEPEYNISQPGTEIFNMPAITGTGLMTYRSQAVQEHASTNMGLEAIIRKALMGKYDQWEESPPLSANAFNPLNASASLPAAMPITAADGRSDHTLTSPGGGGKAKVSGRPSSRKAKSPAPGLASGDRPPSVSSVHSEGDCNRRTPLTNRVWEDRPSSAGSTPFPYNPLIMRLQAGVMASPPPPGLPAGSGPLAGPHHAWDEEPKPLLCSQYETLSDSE

[18] = target: 26S proteasome non-ATPase regulatory subunit 14 (Homo sapiens, UniProt O00487); assay: inhibition of proteasome subunit RPN11 – biochemical, fluorescence polarization, uHTS hits, confirmation (AID 602368); type: functional
[19] = target: Photoreceptor-specific nuclear receptor (Homo sapiens, UniProt Q9Y5X4); assay: ligands suppressing NR2E3 nuclear receptor activity – biochemical, TR-FRET, dose response (AID 463256); type: functional
Sequence of Photoreceptor-specific nuclear receptor (Q9Y5X4 whole entry): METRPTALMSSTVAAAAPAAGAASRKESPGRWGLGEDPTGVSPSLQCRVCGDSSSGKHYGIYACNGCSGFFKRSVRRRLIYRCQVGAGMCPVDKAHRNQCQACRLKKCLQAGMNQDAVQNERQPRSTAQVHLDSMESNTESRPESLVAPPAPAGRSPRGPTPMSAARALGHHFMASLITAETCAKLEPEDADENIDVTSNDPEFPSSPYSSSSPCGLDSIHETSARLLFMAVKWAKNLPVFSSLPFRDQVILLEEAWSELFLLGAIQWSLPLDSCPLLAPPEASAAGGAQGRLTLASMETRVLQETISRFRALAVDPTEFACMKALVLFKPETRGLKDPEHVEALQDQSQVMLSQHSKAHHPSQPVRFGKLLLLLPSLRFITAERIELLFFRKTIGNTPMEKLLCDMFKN

[20] = target: Cytochrome P450 2C19 (Homo sapiens, UniProt P33261); assay: qHTS Assay for Inhibitors and Substrates of Cytochrome P450 2C19. [Related pubchem assays: 410 ]; type: ADME; conditions: read-out: Potency
Sequence of Cytochrome P450 2C19 (P33261 whole entry): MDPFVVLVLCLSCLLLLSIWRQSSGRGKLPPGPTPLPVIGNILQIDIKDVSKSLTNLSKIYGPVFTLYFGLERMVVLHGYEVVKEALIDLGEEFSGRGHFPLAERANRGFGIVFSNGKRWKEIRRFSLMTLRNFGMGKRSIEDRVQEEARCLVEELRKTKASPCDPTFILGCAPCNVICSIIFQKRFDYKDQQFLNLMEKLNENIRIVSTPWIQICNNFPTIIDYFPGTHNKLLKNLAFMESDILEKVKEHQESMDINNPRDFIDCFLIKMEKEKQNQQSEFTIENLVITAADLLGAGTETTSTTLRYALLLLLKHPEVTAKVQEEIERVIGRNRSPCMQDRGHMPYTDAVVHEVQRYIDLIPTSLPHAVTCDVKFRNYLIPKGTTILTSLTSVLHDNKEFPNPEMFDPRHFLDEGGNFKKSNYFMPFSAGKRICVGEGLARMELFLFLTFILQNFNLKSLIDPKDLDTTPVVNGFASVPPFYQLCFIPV

[21] = system: Vero; assay: inhibition of WNV-induced cytopathic effect – cell-based, CPE readout (AID 1621); type: functional; conditions: Chlorocebus sabaeus

**Q.** Which IC50 [1] does the source give for `Nc1c(N2CCOCC2)cc(Cl)c2nonc12` here?
**A.** > 50 µM (not active)

**Q.** Which EC50 [2] does the source give for `CC(=O)c1cnc(Nc2cccc(Cl)c2Cl)s1` here?
**A.** > 38 µM (not active)

**Q.** And the EC50 [3]?
**A.** > 160 µM (inactive)

**Q.** What about the IC50 [4] of the same compound?
**A.** > 109 µM (inactive)

**Q.** And the IC50 [5]?
**A.** > 83.3 µM (inactive)

**Q.** Which results are given for `O=C1c2ccccc2C(=O)C12OC2c1ccc(Cl)cc1` (stereo unspecified)?
**A.** IC50 [6]: 7.05 µM (active); IC50 [7]: 21.2 µM (active); IC50 [8]: > 67 µM (not active); EC50 [9]: 22.2 µM (inconclusive); EC50 [10]: > 120 µM (not active); AC50 [11]: 1.61 µM (active); EC50 [12]: > 120 µM (not active); IC50 [13]: > 2.48 µM (active); EC50 [14]: > 120 µM (not active)

**Q.** Which IC50 [15] does the source give for `Cc1c(NC(=O)c2cccc(-c3cc4ccccc4oc3=O)c2)cccc1-c1nc2ncccc2o1` here?
**A.** > 100 µM (inactive)

**Q.** What about the IC50 [16] of the same compound?
**A.** 92 µM (active)

**Q.** What about the IC50 [17] of the same compound?
**A.** 1.72 µM (active)

**Q.** What about the IC50 [18] of the same compound?
**A.** 24.1 µM (active)

**Q.** What about the IC50 [19] of the same compound?
**A.** 2.33 µM (active)

**Q.** Which results are given for `Cc1ccc(NCC(O)C(O)C(O)CO)cc1C` (stereo unspecified)?
**A.** IC50 [4]: > 109 µM (inactive); IC50 [5]: > 83.3 µM (inactive)

**Q.** For `CC(=O)c1ccc(C2C=CC(Oc3ccc(F)cc3C)C(CO)O2)cc1` (stereo unspecified), which AC50 [20] is on record?
**A.** 6.31 µM (inconclusive)

**Q.** Which IC50 [17] does the source give for `O=C(Cc1ccc(Cl)cc1)Nc1ccc2oc(-c3ccncc3)nc2c1` here?
**A.** 5.54 µM (active)

**Q.** And the IC50 [19]?
**A.** 4.29 µM (active)

**Q.** Which IC50 [21] does the source give for `CCOC(=O)c1[nH]c2ccccc2c1NC(=O)CC(C)(C)C` here?
**A.** 22.2 µM (active)

**Q.** For `C=C[C@@]1(C)C=C2CC[C@@H]3[C@](C)(CCC[C@@]3(C)C(=O)O)[C@H]2CC1` [PIMARIC ACID], which AC50 [20] is on record?
**A.** 7.94 µM (inconclusive)
